This test relates to P388. Kind of test: Antileukemic activity against P-388 leukemia cells. The class given is functional, cell-based. Conditions: Mus musculus.

In brackets after ≈: the same amount, converted by molar mass.

Regarding `COC(=O)C[C@](O)(CCC(C)C)C(=O)O[C@H]1[C@H]2c3cc4c(cc3[C@H]3CN5CCC[C@]25C[C@]1(OC)O3)OCO4`, the concentration for half-maximal inhibition (IC50) is 0.007 µg/mL (≈ 0.0132 µM).

`COC(=O)C[C@](O)(CCC(C)C)C(=O)O[C@@H]1C(OC)=CC23CCCN2CCc2cc4c(cc2[C@H]13)OCO4` (single isomer, unassigned) [DEOXYHARRINGTONINE] came in with an IC50 of 0.0075 µg/mL (≈ 0.0145 µM).

`COC(=O)C[C@](O)(CCC(C)(C)O)C(=O)O[C@@H]1C(OC)=CC23CCCN2CCc2cc4c(cc2[C@H]13)OCO4` (single isomer, unassigned) [HARRINGTONINE] came in with an IC50 of 0.032 µg/mL (≈ 0.0602 µM).

As for `COC(=O)C[C@](O)(CCCC(C)(C)O)C(=O)O[C@@H]1C(OC)=CC23CCCN2CCc2cc4c(cc2[C@H]13)OCO4` (single isomer, unassigned) [OMACETAXINE MEPESUCCINATE], the IC50 was found to be 0.017 µg/mL (≈ 0.0312 µM). This IC50 is about 1.9-fold lower than that of the compound before.

The IC50 is the point on the concentration scale where inhibition reaches its midpoint. High values mean a need for much substance, low ones inhibition by little substance.

Source of the values: ChEMBL document CHEMBL1129123, “Drupangtonine, a novel antileukemic alkaloid from Cephalotaxus harringtonia var. drupacea” (Bioorg Med Chem Lett, 1996).
